Data: ChEMBL document CHEMBL1148139, “Antiangiogenic activity of synthetic dihydrobenzofuran lignans” (J Nat Prod, 2002)
The source made the active and inactive calls. The calls are words filed in the database; no cut-off is given here.

Assays:
[1] = Toxicity to fertilized chicken eggs assessed as membrane irritating activity at 20 ug/pellet; parameters: species or system Gallus gallus; conditions: in vivo, other
[2] = organism: Gallus gallus; experiment: Antiangiogenic activity in fertilized chicken eggs at 5 ug/pellet by CAM assay; format: functional; conditions: Egg
[3] = organism: Gallus gallus; experiment: Antiangiogenic activity in fertilized chicken eggs at 20 ug/pellet by CAM assay; format: functional; conditions: Egg

In the case of `COC(=O)/C=C/c1cc(O)c2c(c1)[C@@H](C(=O)OC)[C@H](c1ccc(O)c(O)c1)O2`, the Activity [1] is reported as 50%, the Activity [2] is reported as “Active” and the Activity [3] is reported as “Active”.
